Source: PubChem BioAssay (NCI)
“And” between values parts separate entries of the source, which are not always exact repeats. Equal values may be shown once.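 96-well plates; 48 h exposure; 5 concentrations. Endpoints by linear interpolation between flanking doses. Not reached: highest tested concentration assigned. The concentration for 50% growth inhibition is given as GI50. TGI marks complete inhibition of growth.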

Assays:
Assay in all cases: NCI tumour cell line growth inhibition, 48 h
[1] = test system: OVCAR-8 ovarian
[2] = test system: PC-3 prostate
[3] = test system: NCI-H460 lung
[4] = test system: BT-549 breast
[5] = test system: RXF 393 renal
[6] = test system: IGROV1 ovarian
[7] = test system: SNB-19 CNS
[8] = test system: M14 melanoma
[9] = test system: A549 NSCLC
[10] = test system: SK-MEL-5 melanoma

Structure (SMILES)	GI50 [1]	TGI [1]	GI50 [2]	TGI [2]	GI50 [3]	TGI [3]	GI50 [4]	TGI [4]	GI50 [5]	TGI [5]	GI50 [6]	TGI [6]	GI50 [7]	TGI [7]	GI50 [8]	TGI [8]	GI50 [9]	TGI [9]	GI50 [10]	TGI [10]
COc1cc(C(=O)/C=C/c2c(C)n([O-])c3ccc(C)cc3[n+]2=O)cc(OC)c1OC	3.46 µM	> 56.4 µM	12.9 µM	> 59.3 µM	14.7 µM	36.9 µM	8.06 µM	33.2 µM	1.89 µM	3.91 µM	3.8 µM	13 µM	20.8 µM	46 µM	4.27 µM	10.3 µM	15.7 µM	82.1 µM	14.8 µM	28 µM
C/C(=N\NC(=O)c1sc(=S)n(C)c1N)c1cc2ccccc2o1	15.3 µM	33.8 µM	9.73 µM	32.7 µM	5.89 µM	24.1 µM	18.3 µM	41.8 µM	13.2 µM	27.8 µM	21.4 µM	> 100 µM	17.1 µM	45.6 µM	14.7 µM	40.5 µM	7.68 µM	20.2 µM	10.8 µM	30.1 µM
COc1cc(NS(C)(=O)=O)ccc1Nc1c2ccc([N+](=O)[O-])cc2nc2c(C)cccc12	1.08 µM	14 µM	1.1 µM	9.1 µM		1.59 µM	1.45 µM	7.45 µM	1.65 µM	6.35 µM	1.45 µM	9.36 µM	0.213 µM	14.1 µM	0.228 µM	11.2 µM	0.0345 µM	2.34 µM	0.194 µM	1.81 µM
N#Cc1c(-c2ccccc2)nc(SCC2CO2)nc1N1CCOCC1 (centres undefined)	35.9 µM	> 100 µM	6.19 µM	> 100 µM	6.59 µM	> 100 µM	5.89 µM	> 94.1 µM	13 µM	> 100 µM	2.6 µM	25.9 µM	64.4 µM	> 100 µM	13.4 µM	> 100 µM	21 µM	> 100 µM	10.2 µM	> 100 µM
F	3250 µM	> 6870 µM	3920 µM	> 6870 µM	5410 µM	> 6870 µM	3050 µM	> 6870 µM	2360 µM	5200 µM	2800 µM	> 6870 µM	6220 µM	> 6870 µM	2260 µM	5900 µM	2730 µM	> 6870 µM	1420 µM	2700 µM
Cc1nc(-c2cccc(Nc3nc(-c4ccc(Cl)cc4)cs3)c2)cs1	10.1 µM	23.2 µM	8.96 µM	21.2 µM	12.4 µM	31.6 µM	10.7 µM	21.6 µM	9.63 µM	19 µM	15.9 µM	32.7 µM	12.8 µM	28.9 µM	9.72 µM	19.6 µM	8.9 µM	24.7 µM	10.5 µM	19.7 µM
C=C1C(=O)O[C@H]2[C@H]1CC/C(CNC(=O)Cc1c[nH]c3ccccc13)=C\CC[C@@]1(C)O[C@@H]21	1.12 µM	12.4 µM	6.36 µM	21.1 µM	12 µM	29.5 µM	3.04 µM	15.8 µM	1.3 µM	5.65 µM	0.833 µM	9.06 µM	15 µM	35.2 µM	0.641 µM	9.8 µM	14.9 µM	33.3 µM	7.32 µM	20.3 µM
C[C@@H]1COCCN1c1cc(C2([S@](C)(=N)=O)CC2)nc(-c2ccnc3[nH]ccc23)n1	6.65 µM and > 10 µM	> 84.5 µM	12.2 µM and > 10 µM	> 100 µM	1.04 µM and 2.1 µM	> 100 µM	1.83 µM and 2.92 µM	27.7 µM and > 10 µM	1.33 µM and 3.34 µM	6.37 µM and > 10 µM	4.24 µM and 2.23 µM	68.6 µM and > 10 µM	3.96 µM and 6.33 µM	> 100 µM	1.69 µM and 2.38 µM	9.96 µM and > 10 µM	3.46 µM and 4.02 µM	> 100 µM	3.6 µM and 3.87 µM	15.7 µM and > 10 µM
COc1ccc(-c2cc(-c3cc(Cl)ccc3Cl)nc3n[nH]c(N)c23)cc1	32 µM	> 100 µM	35.9 µM	> 100 µM	6.68 µM	39.3 µM	38.1 µM	> 100 µM	29.5 µM	> 100 µM	28.3 µM	> 100 µM	31.8 µM	> 100 µM	29.5 µM	> 100 µM	28.8 µM	> 100 µM	14.4 µM	34.5 µM
CCN(CC)CCOCC[C@H]1CC[C@H]2[C@@H]3[C@H](C)Cc4cc(OS(N)(=O)=O)ccc4[C@H]3CC[C@]12C	2.05 µM	5.67 µM	1.57 µM	4.48 µM	1.23 µM	2.56 µM	1.67 µM	3.99 µM	1.67 µM	4.12 µM	2.41 µM	8 µM	1.71 µM	3.17 µM	1.26 µM	2.59 µM	1.8 µM	5.58 µM	1.04 µM	2.23 µM
FC(F)(F)c1nc(N2CCCC2)ncc1-c1nnnn1-c1ccc(Cl)cc1	25 µM	> 100 µM	16 µM	82.2 µM	11.7 µM	90.2 µM	31 µM	> 100 µM	14.9 µM	51.7 µM	25.5 µM	> 100 µM	30.9 µM	> 100 µM	20.2 µM	55.3 µM	13.4 µM	> 100 µM	12 µM	28.3 µM
